Our source for the inhibition values is patent US11572590B2, “Methods for evaluating tumor cell spheroids using 3D microfluidic cell culture device” (Dana-Farber Cancer Institute, Inc., priority 2017, dated 2023).

Common to all, as to test: SelectScreen Kinase Profiling, single point inhibition and IC50 for off-target kinases
Common to all, as to assay type: biochemical

Assay [1] concerns the target off-target kinases (Homo sapiens, UniProt Q00535). The protocol:
(§1) Biochemical single point inhibition and IC50 concentrations for TBK1, IKKε (IKBKE), and off-target kinases were determined at ThermoFisher Scientific using SelectScreen Kinase Profiling Services (Madison, Wis., USA) (Tables S4A and S4B-1-7). To determine cellular potency, the human colorectal cancer carcinoma cell line HCT116 (ATCC, Manassas, Va.) was maintained in T175 flasks in complete RPMI medium; RPMI 1640 supplemented with 10% FBS, 1× Penicillin-Streptomycin solution and 1×MEM (non-essential amino acids). HCT116 cells were grown to 90-95% confluency in T175 flasks containing complete RPMI medium and transfected in bulk using Lipofectamine 2000 (Invitrogen, Carlsbad, Calif.) with 70 μg of ISG54-luciferase reporter plasmid (Elim Biopharmaceuticals Inc., Hayward, Calif.). The reporter plasmid contains a luciferase gene expression cassette under the transcriptional regulation of the promoter of the human interferon stimulated gene 54 (ISG54). Transfection of the cells was allowed to take place for 6 hours, after which the cells were harvested by treatment with 0.25% trypsin EDTA (Corning Inc., Corning, N.Y.). Trypsinized cells were added to 384-well poly-d-lysine treated black clear bottom tissue culture assay plates (Greiner Bio-One GmbH, Kremsmünster, Austria) at a density of 20,000 cells/well in 80 μL of complete RPMI medium and incubated overnight. After 16-18 hours post-transfection, the assay plates were washed with PBS (Corning Inc., Corning, N.Y.), followed by addition of 80 μL/well of serum-free RPMI 1640 medium containing 1× Penicillin-Streptomycin solution, 1×MEM and 350 nL of DMSO or titrations of Compound 1. Compound 1 titrations were generated by 1.5-fold dilution steps in two overlapping serial dilution series to generate a 40-point compound dose range. After incubation at 37° C. for 1 hour, the cells were stimulated with Poly(I:C) (InvivoGen, San Diego, Calif.) at a final concentration of 15 μg/mL in Optimem media (Life Technologies, Rockville, Md.). The assay plates were incubated for 5 hours at 37° C., followed by addition of One-Glo luciferase firefly reagent (Promega, Madison, Wis.) at 1:1 volume/well and luminescence was measured in an EnVision Multilabel Plate Reader (PerkinElmer, Santa Clara, Calif.). The EC50 values were calculated from the fit of the dose-response curves to a four-parameter equation. All EC50 values represent geometric mean values of a minimum of four determinations.

Assay [2] addresses off-target kinases (Homo sapiens, UniProt P00519, T315I). Conditions: ABL1 T315I, mutant y, ZLYTE, ATP Km app. How it is done: as §1
The target of assay [3] is T1, off-target kinases (Homo sapiens, UniProt Q8WXR4).
T1 sequence (Q8WXR4 1-1341): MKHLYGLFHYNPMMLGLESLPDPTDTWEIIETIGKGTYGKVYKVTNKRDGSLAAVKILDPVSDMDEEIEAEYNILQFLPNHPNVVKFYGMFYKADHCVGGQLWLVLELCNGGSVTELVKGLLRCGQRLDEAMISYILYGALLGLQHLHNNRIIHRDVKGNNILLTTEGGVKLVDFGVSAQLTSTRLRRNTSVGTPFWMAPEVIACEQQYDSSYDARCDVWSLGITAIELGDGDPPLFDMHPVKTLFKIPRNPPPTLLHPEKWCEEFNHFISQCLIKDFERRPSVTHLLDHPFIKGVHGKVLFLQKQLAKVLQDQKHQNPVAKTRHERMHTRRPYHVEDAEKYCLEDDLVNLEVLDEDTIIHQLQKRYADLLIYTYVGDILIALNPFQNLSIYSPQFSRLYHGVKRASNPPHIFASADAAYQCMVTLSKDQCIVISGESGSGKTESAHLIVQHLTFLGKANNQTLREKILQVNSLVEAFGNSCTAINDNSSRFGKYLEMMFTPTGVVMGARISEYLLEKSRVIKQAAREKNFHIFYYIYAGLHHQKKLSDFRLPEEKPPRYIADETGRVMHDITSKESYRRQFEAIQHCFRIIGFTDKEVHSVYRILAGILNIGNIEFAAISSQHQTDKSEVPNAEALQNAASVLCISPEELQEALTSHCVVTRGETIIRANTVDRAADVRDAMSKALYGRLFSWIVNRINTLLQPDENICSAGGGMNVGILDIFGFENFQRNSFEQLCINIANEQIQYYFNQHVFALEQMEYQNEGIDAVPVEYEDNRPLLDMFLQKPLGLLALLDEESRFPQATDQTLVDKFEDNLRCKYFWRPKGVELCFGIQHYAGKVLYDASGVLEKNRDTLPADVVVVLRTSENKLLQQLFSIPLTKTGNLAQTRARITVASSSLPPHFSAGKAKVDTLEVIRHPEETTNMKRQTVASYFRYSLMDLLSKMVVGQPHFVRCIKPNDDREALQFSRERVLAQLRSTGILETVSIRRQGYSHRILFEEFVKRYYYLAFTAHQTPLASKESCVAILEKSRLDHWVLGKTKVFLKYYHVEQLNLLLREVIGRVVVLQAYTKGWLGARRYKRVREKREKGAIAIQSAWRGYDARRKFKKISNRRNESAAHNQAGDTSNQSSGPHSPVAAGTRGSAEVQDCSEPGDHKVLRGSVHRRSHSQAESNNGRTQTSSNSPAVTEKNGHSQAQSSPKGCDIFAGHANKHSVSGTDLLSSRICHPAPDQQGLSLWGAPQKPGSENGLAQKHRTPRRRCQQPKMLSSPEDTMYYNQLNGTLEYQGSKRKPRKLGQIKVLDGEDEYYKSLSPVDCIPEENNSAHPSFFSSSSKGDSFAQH
Conditions: MYO3B (MYO3 beta), LanthaScreen Binding. The protocol:
as §1
A general note: In TR-FRET formats the signal depends on donor and acceptor labels being close together.

Where two headings read alike, the source gives them in different places.

off-target kinases (Homo sapiens, UniProt Q00535), sequence (Q00535 whole entry): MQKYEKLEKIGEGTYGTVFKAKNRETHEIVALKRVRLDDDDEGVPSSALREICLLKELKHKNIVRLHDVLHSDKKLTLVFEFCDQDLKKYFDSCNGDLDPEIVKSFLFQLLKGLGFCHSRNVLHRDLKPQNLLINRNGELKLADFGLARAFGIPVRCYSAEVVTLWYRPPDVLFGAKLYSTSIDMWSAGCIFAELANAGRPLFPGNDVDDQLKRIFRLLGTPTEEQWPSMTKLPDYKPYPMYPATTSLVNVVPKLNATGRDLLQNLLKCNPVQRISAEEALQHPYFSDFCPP

By inhibition is commonly meant the drop in the measured response relative to a control, in per cent. On to `N#Cc1cc(-c2ncnc(Nc3ccc(N4CCN(C5COC5)CC4)cc3)n2)ccc1OC1CCOCC1` [Compound 1, 5-(4-((4-(4-(oxetan-3-yl)piperazin-1-yl)phenyl)amino)-1,3,5-triazin-2-yl)-2-((tetrahydro-2H-pyran-4-yl)oxy)benzonitrile], for which the inhibition in assay [1] (CDK5 (Inactive), LanthaScreen Binding, read-out: % Inhibition 1) was 1%; in assay [1] (CDK5 (Inactive), LanthaScreen Binding, read-out: % Inhibition 2), -2%; in assay [1] (CDK5/p25, ZLYTE, ATP Km app, read-out: % Inhibition 1) it was 3%; in assay [1] (CDK5/p25, ZLYTE, ATP Km app, read-out: % Inhibition 2), 1%; in assay [1] (CDK5/p25, ZLYTE, ATP Km app, read-out: % Inhibition Avg), 2%; in assay [1] (CDK5/p35, ZLYTE, ATP Km app, read-out: % Inhibition 1), 7%. The inhibition in assay [1] (CDK5/p35, ZLYTE, ATP Km app, read-out: % Inhibition 2) is 2%; in assay [1] (CDK5/p35, ZLYTE, ATP Km app, read-out: % Inhibition Avg), 5%; in assay [1] (read-out: % Inhibition Avg) it was -1%; in assay [2] (read-out: % Inhibition 1) it was 30%; in assay [2] (read-out: % Inhibition 2), 29%; in assay [2] (read-out: % Inhibition Avg), 29%. Besides, the inhibition worked out at 17% in assay [3] (read-out: % Inhibition 1), 20% in assay [3] (read-out: % Inhibition 2) and 18% in assay [3] (read-out: % Inhibition Avg).
